Read-outs that look alike come from different tables or passages of the source.
Key:
[1] = tested on: HeLa S3 cells; assay: Double thymidine block and release, FACS and morphology; assay type: cell-based, human; details: for morphologic appearance: 15 hours release from double thymidine block; for cell cycle progression by FACS: cells synchronized at the G1/S transition and released into compound
Procedure: FIG. 9. […] Synchronized cells (time zero) were released into media containing granaticin A for the indicated times and standard FACS analysis performed looking at DNA content.
FIG. 11. Cell cycle arrest in Hela S3 cells: Morphologic appearance of control (DMSO), granaticin A, and granaticin B treated HeLa S3 cells following 15 hours release from double thymidine block. […] The corresponding FACS profiles are shown.

[2] = tested on: HeLa; assay: FACS and caspase-3 assay in HeLa cells; assay type: cell-based, human; details: for cell cycle profile: 24 hours (granaticin B 1 microM)
Procedure: (§1) FIGS. 23A-23C. Granaticin A and B are not cytotoxic to normal diploid cells: FIGS. 23A-23B: Granaticin B exposure is not cytotoxic to normal diploid cells. Either HeLa or RPE (retinal pigment epithelial cells, a normal human diploid cell line) cells were incubated in carrier control (DMSO) or granaticin B (1 microM) for 24 hours and samples were subjected to standard FACS analysis with the x-axis indicating DNA content (FIG. 23A). […] FIG. 23C: Granaticin A exposure is not cytotoxic to normal diploid cells. Either HeLa or RPE (retinal pigment epithelial cells, a normal diploid cell line) cells were incubated in carrier control (DMSO) or granaticin A for 24 hours and samples were subjected to standard FACS analysis with FL2 indicating DNA content.

[3] = tested on: RADO; assay: Cytotoxicity assay (Alamar blue); assay type: cell-based; details: Homo sapiens, Patient sample of primary refractory AML with multiple chromosomal abnormalities (−5, −7)
Procedure: (§2) FIGS. 16A-16B. Granaticin A and Granaticin B inhibit multiple tumor types: The indicated cell lines and primary patient samples were tested against the compounds listed in standard cytotoxicity assays (12 point dose response using Alamar blue reduction as an indicator of cell viability). Assays were done in triplicate and IC50 determinations were run in 12-point serial dilutions from […] to 5 nM. […] These include ras and EGFR gatekeeper mutation containing cell lines in addition to p53 mutant cell lines and other known chemotherapy resistant cell lines. Specifically, this included multi-drug resistance phenotype (MDR-overexpressing) cell lines from multiple hematologic and solid tumor cell lines. Table 1 highlights a series of primary patient leukemia samples-both acute and chronic and treatment naïve and refractory tested against granaticins A and B and Derivatives 1 and 2 (see Examples).

[4] = tested on: BE(2)C; assay: Cytotoxicity assay (Alamar blue); assay type: cell-based; details: human neuroblastoma, p53 mutant
Procedure: as §2

[5] = tested on: PC9; assay: Cytotoxicity assay (Alamar blue); assay type: cell-based; details: PC-9, Human lung adenocarcinoma, DelE746-A750 EGFR mutation
Procedure: as §2

[6] = tested on: H1734; assay: Cytotoxicity assay (Alamar blue); assay type: cell-based; details: NCI-H1734, Human lung adenocarcinoma, G13C KRAS mutation
Procedure: as §2

[7] = tested on: STGL; assay: Cytotoxicity assay (Alamar blue); assay type: cell-based; details: Homo sapiens, Patient sample of refractory AML with multiple chromosomal abnormalities (refractory to allogeneic BMT)
Procedure: as §2

[8] = tested on: K562; assay: Cytotoxicity assay (Alamar blue); assay type: cell-based; details: Human Chronic Myelogenous leukemia transformed to acute erythroleukemia
Procedure: as §2

[9] = tested on: JOQU; assay: Cytotoxicity assay (Alamar blue); assay type: cell-based; details: Homo sapiens, Patient sample of relapsed/refractory AML with trisomy of chromosome #8 and Flt-3 ITD
Procedure: as §2

[10] = tested on: MOLT3; assay: Cytotoxicity assay (Alamar blue); assay type: cell-based; details: MOLT-3, Human Acute Lympholastic T-cell Leukemia
Procedure: as §2

[11] = tested on: H2444; assay: Cytotoxicity assay (Alamar blue); assay type: cell-based; details: NCI-H2444, human lung adenocarcinoma, G12V KRAS mutation
Procedure: as §2

[12] = tested on: FUUR1; assay: Cytotoxicity assay (Alamar blue); assay type: cell-based; details: human renal cell carcinoma with the reciprocal ASPL-TFE3 fusion transcript
Procedure: as §2

[13] = tested on: JOBL; assay: Cytotoxicity assay (Alamar blue); assay type: cell-based; details: Homo sapiens, Patient sample of relapsed/refractory acute myelogenous leukemia
Procedure: as §2

[14] = tested on: 132; assay: Cytotoxicity assay (Alamar blue); assay type: cell-based; details: Homo sapiens, Patient sample of Chronic Lymphocytic Leukemia
Procedure: as §2

[15] = tested on: HCC827; assay: Cytotoxicity assay (Alamar blue); assay type: cell-based; details: human lung adenocarcinoma, DelE746-A750 EGFR mutation
Procedure: as §2

[16] = tested on: MESO47; assay: Cytotoxicity assay (Alamar blue); assay type: cell-based; details: human mesothelioma, WT-1 overexpression
Procedure: as §2

[17] = tested on: MEG01; assay: Cytotoxicity assay (Alamar blue); assay type: cell-based; details: MEG-01, Human CML transformed to acute Megakaryoblastic leukemia
Procedure: as §2

[18] = tested on: SW1736; assay: Cytotoxicity assay (Alamar blue); assay type: cell-based; details: SW-1736, Human anaplastic thyroid carcinoma with BRAF V600E mutation
Procedure: as §2

[19] = tested on: PAPR; assay: Cytotoxicity assay (Alamar blue); assay type: cell-based; details: Homo sapiens, Patient sample of relapsed acute myelomonocytic leukemia
Procedure: as §2

[20] = tested on: TC71; assay: Cytotoxicity assay (Alamar blue); assay type: cell-based; details: TC-71, Human Ewing's sarcoma
Procedure: as §2

[21] = tested on: H2122; assay: Cytotoxicity assay (Alamar blue); assay type: cell-based; details: NCI-H2122, human lung adenocarcinoma, G12C KRAS mutation, Q16L and C176F P53 mutations
Procedure: as §2

[22] = tested on: JAKL; assay: Cytotoxicity assay (Alamar blue); assay type: cell-based; details: Homo sapiens, Patient sample of CLL with trisomy of chromosome 12 and unmutated Ig heavy chain locus
Procedure: as §2

[23] = tested on: SKOV3; assay: Cytotoxicity assay (Alamar blue); assay type: cell-based; details: SK-OV-3, Human adenocarcinoma from the ovary derived from ascites, hypodiploid
Procedure: as §2

[24] = tested on: GLHU; assay: Cytotoxicity assay (Alamar blue); assay type: cell-based; details: Homo sapiens, Patient sample of Chronic Myelogenous leukemia
Procedure: as §2

[25] = tested on: RPE (retinal pigment epithelial cells); assay: FACS and caspase-3 assay in normal diploid cells; assay type: cell-based
Procedure: as §1

[26] = tested on: PhALL3.1; assay: Cytotoxicity assay (Alamar blue), patient leukemia sample; assay type: cell-based, human; details: for IC50: Homo sapiens, PhALL3.1
Procedure: as §2
Table 1 highlights a series of primary patient leukemia samples-both acute and chronic and treatment naïve and refractory and the effect of granaticin A, granaticin B, derivative 1, and derivative 2 to inhibit cellular proliferation. […] The two starred samples represent serial samples taken from the same patients after they received 2-3 cycles of additional high dose salvage chemotherapy and indicate that although refractory to salvage chemotherapy, the Cdc7 pathway remains a potentially efficacious target as the sensitivity to these compounds remains unchanged. Importantly, each patient sample was resistant to the prior therapy received using this assay.

Compound	morphologic appearance [1]	cell cycle progression by FACS [1]	cell cycle profile [2]	IC50 [3] [nM]	IC50 [4] [nM]	IC50 [5] [nM]	IC50 [6] [nM]	IC50 [7] [nM]	IC50 [8] [nM]	IC50 [9] [nM]	IC50 [10] [nM]	IC50 [11] [nM]	IC50 [12] [nM]	IC50 [13] [nM]	IC50 [14] [nM]	IC50 [15] [nM]	IC50 [16] [nM]	IC50 [17] [nM]	IC50 [18] [nM]	IC50 [19] [nM]	other results
CC1OC2CC(O)C1(O)c1c(O)c3c(c(O)c12)C(=O)C1=C(C3=O)[C@H](C)O[C@H]2CC(=O)O[C@@H]12 (stereo partly drawn) [Granaticin A, granaticin A]	arrested with flattened morphology and peri-nuclear vacuolization	S phase progression is also blocked	apoptotic cell death	60	70	300	240	1880	120	770	30	310	480	560	130	280	610	170	160	990	IC50 [20]: 150 nM; IC50 [21]: 1190 nM; IC50 [22]: 50 nM; IC50 [23]: 120 nM; IC50 [24]: 260 nM; cell cycle profile [25]: unaffected; IC50 [26]: 140 nM; activity in the cell based assays ([26]; PhALL3.1 cell line): very active
CC1OC2CC(O[C@H]3CC[C@H](O)[C@H](C)O3)C1(O)c1c(O)c3c(c(O)c12)C(=O)C1=C(C3=O)[C@H](C)O[C@H]2CC(=O)O[C@@H]12 (stereo partly drawn) [Granaticin B, granaticin B]	nuclear blebbing and cell death	Induces Cell Cycle Arrest	apoptotic cell death	30	40	70	40	620	80	140	10	30	340	190	10	120	380	80	20	490	caspase-3 activation ([2]; 1 microM): only activated in HeLa cells; IC50 [20]: 90 nM; IC50 [21]: 210 nM; IC50 [22]: 10 nM; IC50 [23]: 40 nM; IC50 [24]: 80 nM; caspase-3 activation ([25]; RPE cells, 1 microM): does not result in caspase-3 activation; cell cycle profile ([25]; RPE cells, 24 hours (granaticin B 1 microM)): essentially unaffected; IC50 [26]: 30 nM
